Measured values from the supplement of paper PMC10307832.

Key:
Assay in all cases: relative viability (nuclei count vs DMSO), 5 days (fraction); higher = more cells survive
Sorafenib + Trametinib = compound: CNC(=O)c1cc(Oc2ccc(NC(=O)Nc3ccc(Cl)c(C(F)(F)F)c3)cc2)ccn1 [Sorafenib] + CC(=O)Nc1cccc(-n2c(=O)n(C3CC3)c(=O)c3c(Nc4ccc(I)cc4F)n(C)c(=O)c(C)c32)c1 [Trametinib] (partner 0.02 µM)
Method in brief: (§1)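 After 5 days of treatment, lung cancer cells in 1536-well plates were fixed and stained in a single step (final 0.05% Triton X-100, 1% formaldehyde, 1 ug/ml Hoechst) and their nuclei counted on 4× images. Treatment had been applied by pin tool the day after seeding as one drug alone or as a fixed anchor-drug dose with five library-drug doses (not always all listed) in √10 steps. Relative viability is the nuclei count of treated wells divided by that of vehicle wells, and values are medians of duplicate plates.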

Sorafenib + Luminespib = compound: CNC(=O)c1cc(Oc2ccc(NC(=O)Nc3ccc(Cl)c(C(F)(F)F)c3)cc2)ccn1 [Sorafenib] + CCNC(=O)c1noc(-c2cc(C(C)C)c(O)cc2O)c1-c1ccc(CN2CCOCC2)cc1 [Luminespib] (partner 0.01 µM)
Method in brief: as §1

Sorafenib + Lapatinib = compound: CNC(=O)c1cc(Oc2ccc(NC(=O)Nc3ccc(Cl)c(C(F)(F)F)c3)cc2)ccn1 [Sorafenib] + CS(=O)(=O)CCNCc1ccc(-c2ccc3ncnc(Nc4ccc(OCc5cccc(F)c5)c(Cl)c4)c3c2)o1 [Lapatinib] (partner 2 µM)
Method in brief: as §1

Sorafenib + Alpelisib = compound: CNC(=O)c1cc(Oc2ccc(NC(=O)Nc3ccc(Cl)c(C(F)(F)F)c3)cc2)ccn1 [Sorafenib] + Cc1nc(NC(=O)N2CCC[C@H]2C(N)=O)sc1-c1ccnc(C(C)(C)C(F)(F)F)c1 [Alpelisib] (partner 2 µM)
Method in brief: as §1

Sorafenib + Pemetrexed = compound: CNC(=O)c1cc(Oc2ccc(NC(=O)Nc3ccc(Cl)c(C(F)(F)F)c3)cc2)ccn1 [Sorafenib] + Nc1nc2[nH]cc(CCc3ccc(C(=O)N[C@@H](CCC(=O)O)C(=O)O)cc3)c2c(=O)[nH]1 [Pemetrexed] (partner 0.2 µM)
Method in brief: as §1

Cell Line | relative viability (Sorafenib + Trametinib; first compound 0.08 µM) | relative viability (Sorafenib + Trametinib; first compound 2.53 µM) | relative viability (Sorafenib + Trametinib; first compound 8 µM) | relative viability (Sorafenib + Luminespib; first compound 0.08 µM) | relative viability (Sorafenib + Luminespib; first compound 0.253 µM) | relative viability (Sorafenib + Luminespib; first compound 2.53 µM) | relative viability (Sorafenib + Luminespib; first compound 8 µM) | relative viability (Sorafenib + Lapatinib; first compound 0.08 µM) | relative viability (Sorafenib + Lapatinib; first compound 0.253 µM) | relative viability (Sorafenib + Lapatinib; first compound 2.53 µM) | relative viability (Sorafenib + Lapatinib; first compound 8 µM) | relative viability (Sorafenib + Alpelisib; first compound 0.08 µM) | relative viability (Sorafenib + Alpelisib; first compound 0.253 µM) | relative viability (Sorafenib + Alpelisib; first compound 2.53 µM) | relative viability (Sorafenib + Alpelisib; first compound 8 µM) | relative viability (Sorafenib + Pemetrexed; first compound 0.08 µM) | relative viability (Sorafenib + Pemetrexed; first compound 0.253 µM) | relative viability (Sorafenib + Pemetrexed; first compound 2.53 µM) | relative viability (Sorafenib + Pemetrexed; first compound 8 µM) | relative viability (Sorafenib + Trametinib; first compound 0.253 µM)
RERF-LC-KJ | 0.753 | 0.86 | 0.65 | 1.2 | 1.26 | 1.24 | 0.404 | 0.917 | 0.782 | 0.838 | 0.778 | 1.03 | 0.989 | 0.951 | 0.906 | 0.485 | 0.458 | 0.524 | 0.417 | –
SK-LU-1 | 0.726 | 0.302 | 0.234 | 0.181 | 0.181 | 0.2 | 0.179 | 0.914 | 0.735 | 0.774 | 0.373 | 0.987 | – | 0.868 | 0.242 | 1.06 | 0.871 | 0.897 | 0.388 | 0.44
SK-MES-1 | 0.627 | 0.315 | 0.231 | 0.752 | 0.69 | 0.791 | 0.412 | 0.468 | 0.465 | 0.56 | 0.515 | 0.957 | 0.877 | 0.854 | 0.873 | 0.999 | 0.84 | 0.881 | – | 0.614
SW 1573 | 0.549 | 0.337 | 0.131 | 0.239 | 0.255 | 0.166 | 0.117 | 1.18 | 0.978 | 1.12 | 0.963 | 0.879 | 0.757 | 0.805 | 0.578 | 0.911 | – | 0.719 | 0.374 | 0.608
UMC-11 | 0.854 | 0.639 | 0.612 | 1.03 | 1.03 | 1 | 0.182 | 1.08 | 0.874 | 1.07 | 0.468 | 0.999 | 0.959 | 0.968 | 0.529 | 0.869 | 0.788 | 0.772 | 0.474 | 0.743
